# Values quoted from earlier work as cited in patent publication US11382865B2, “Pharmaceutical preparation and method for its manufacture” (BAYER ANIMAL HEALTH GMBH, priority 2016, dated 2022).
# Assays:
# [1] = test system: parasitic worms (helminths); details: veterinary parasiticide
structure (smiles),measurement,setting,value
CO/N=C1\C[C@]2(C[C@@H]3C[C@@H](C/C=C(\C)C[C@@H](C)/C=C/C=C4\CO[C@@H]5[C@H](O)C(C)=C[C@@H](C(=O)O3)[C@]45O)O2)O[C@H](/C(C)=C/C(C)C)[C@H]1C [Moxidectin],Solubility in organic solvents,organic solvents,readily soluble
same,Solubility in water,water,practically insoluble
same,Dose at which active,[1],< 25 μg/kg body weight
